From ChEMBL document CHEMBL1158015, “New steroid glycosides from the deep-water starfish Mediaster murrayi” (J Nat Prod, 1999)

Key:
[1] = Inhibition of cell division of sea urchin fertilized eggs at 100 uM; assay type: functional; conditions: Strongylocentrotus intermedius, Egg
[2] = Toxicity in mouse erythrocytes assessed as hemolysis; assay type: cell-based, Erythrocyte; conditions: read-out: ED50 (the source's name)
[3] = Inhibition of cell division of sea urchin fertilized eggs at 25 uM; assay type: functional; conditions: Strongylocentrotus intermedius, Egg

Structure (SMILES) | inhibition at 100 µM [1] [%] | HC50 [2] [µM] | inhibition at 25 µM [3] [%]
CC(C)[C@H](CC[C@@H](C)[C@H]1C[C@@H](O)[C@@H]2[C@]1(C)CC[C@H]1[C@@]2(O)C[C@H](O)C2C[C@@H](O)CC[C@@]21C)O[C@@H]1O[C@@H](CO[C@@H]2OC[C@@H](O)[C@H](O)[C@H]2O)[C@H](O)[C@H]1O (some centres undefined) [MEDIASTEROSIDE M2] | 100 | 35 | 
CO[C@H]1[C@H](OC[C@@H]2O[C@@H](O[C@@H](CC[C@@H](C)[C@H]3C[C@@H](O)[C@@H]4[C@]3(C)CC[C@H]3[C@@]4(O)C[C@H](O)C4C[C@@H](O)CC[C@@]43C)C(C)C)[C@H](O)[C@H]2O)OC[C@@H](O)[C@@H]1O (some centres undefined) [MEDIASTEROSIDE M1] |  | 66 | 100
